Several values for one entry are separate records, joined by “and”; a condition that tells them apart may be missing. Equal values may be shown once.
Tested on: DBA-2 mice
Assay: Glomerular filtration rate (GFR) by [14C]inulin clearance after bolus drug
Assay type: in vivo
Experimental: British Journal of Cancer (1998) 78(11), 1457-1463 ? […] In contrast to Tomudex (ZD1694), ZD9331 may therefore be active against tumours with low FPGS activity. […] In view of the history of renal toxicity with some earlier TS inhibitors and the possible therapeutic use of bolus ZD9331, we have examined the effects of bolus ZD9331 dose and route of administration on plasma and kidney pharmacokinetics and renal function in mice. Renal function was assessed by measuring [14C]inulin clearance, and drug concentrations were assayed by reverse-phase high-performance liquid chromatography (HPLC). […] Kidney drug concentrations were slightly elevated in iv.- versus i.p.-treated animals at the low dose (50 mg kg-'), with a correspondingly larger area under the curve. However, at the highest dose (200 mg kg-'), peak kidney drug concentrations were 20-fold higher following i.v. administration than after i.p., with marked kidney retention, resulting in a 50-fold greater kidney drug exposure for the i.v. versus the i.p. route. […] These adverse effects can be readily overcome by i.p. administration, indicating the likely need for short infusions in clinical settings. […] Early studies established that nephrotoxicity may be a result of poor aqueous solubility of 2-amino compounds such as CB3717, and it was shown that 2-desamino CB3717 was more water soluble and less nephrotoxic (Jones et al, 1989; 1996). […] These polyglutamate forms also exibit intra- cellular retention, which may contribute to toxicity as well as anti- tumour activity. […] Such compounds might be expected to show activity in a different spectrum of tumours from ZD1694 and to have a more manageable toxicity profile because of the lack of retained cyto- toxic metabolites. […] MATERIALS AND METHODS Drug administration and animals The compound ZD933 1 (Figure 1) was provided as a white crystalline salt. ['4C]inulin was provided as a carboxylic acid (Amersham, UK, 250 µCi in 5 ml, specific activity 6.6 mCi mmol-') and diluted to an activity of 5 µCi ml-' in phosphate-buffered saline (PBS). ZD9331 was dissolved in 0.05 M sodium bicarbonate, 1457 1458 Ml Walton et al ~~ N Ny~~~14COOHH 0 H IN H N CH ~~~~H , 4 H3C N3 H Figure 1 The chemical structure of ZD9331 adjusted to pH 9.0 and administered either i.v. via the tail vein or i.p. at 0.01 ml g-' mouse body weight. [14C]inulin was administered at 0.05 gCi g-' (i.e. 0.01 ml g-') i.v. via the tail vein. Adult female DBA-2 mice were obtained from OLAC (Bicester, UK) and used at 8-12 weeks of age at a body weight of 15-25 g. Mice were housed in cages containing untreated sawdust and allowed access to food and water ad libitum. Sample preparation Plasma and tissue samples were prepared using standard tech- niques (Walton et al, 1996). Briefly, whole blood was obtained by cardiac puncture into heparinized syringes from halothane- anaesthetized mice. Plasma was prepared by centrifugation at 12 000 r.p.m. x 2 min in a bench-top microcentrifuge. Kidney and liver tissues were rapidly removed, washed and snap frozen on dry ice. Frozen plasma and tissues were stored at -20?C for up to 4 weeks prior to analysis. Individual samples were thawed on ice and handled rapidly. ZD9331 was extracted from whole plasma or tissue homogenates (33% w/v in 0.1 M Tris, pH 10.0) by the addition of an equal volume of acetonitrile, mixing and centrifugation and the super- natant removed for injection into the HPLC system. Samples were diluted with Tris buffer (0.1 M, pH 10.0) on to the linear part of the calibration curve prior to HPLC analysis. Extraction efficiencies were >95%. HPLC analysis Concentrations of ZD9331 were measured in biological samples using reversed phase HPLC on equipment supplied by Kontron (Watford, UK). Separations were carried out using stainless-steel columns heated at 45?C and packed with C18 Supelcosil ODS (10 cm x 4.6 mm, 5 µm bead size, Sigma, Dorset) and protected with NewGuard C18 columns (Anachem, Luton, UK). […]

Row | Compound | effect on GFR (150 mg kg-1 i.p., 24 h after administration) | effect on GFR (150 mg kg-1 i.v., 4 h after administration) | effect on GFR (150 mg kg-1 i.v., 24 h after administration) | plasma clearance of [14C]inulin (normal DBA-2 mice, i.v., two independent experiments)
1 | C#CCN(Cc1ccc2nc(N)[nH]c(=O)c2c1)c1ccc(C(=O)N[C@@H](CCC(=O)O)C(=O)O)cc1 [CB3717, N10-propargyl-5,8-dideazafolic acid, reference compound] | significant renal toxicity | significant renal toxicity | significant renal toxicity | –
2 | [14C]inulin [reference compound] | – | – | – | 19.5 mL/min/kg and 21.3 mL/min/kg
